Test results as given in article PMC7213079, “Hit Identification of New Potent PqsR Antagonists as Inhibitors of Quorum Sensing in Planktonic and Biofilm Grown Pseudomonas aeruginosa” (Frontiers in Chemistry, 2020).

Test system: PA14 mCTX::PpqsA-lux
Assay: PpqsA-lux bioreporter assay, strain PA14
Assay type: cell-based, Pseudomonas aeruginosa
Details: Pseudomonas aeruginosa, PA14, read-out: IC50 PA14
Text: To inform the structural variation of 7, crystal structures with the endogenous ligand [4-hydroxy-2-heptylquinoline (NHQ)] and the inhibitor M64 were used (Ilangovan et al., [2013]; Kitao et al., [2018]). The PqsR LBD is dominated by lipophilic interactions, therefore the current SAR exploration mainly focused on varying the aromatic tail substituents and examining the effect of 8-position substitution. The rationale for these modifications was primarily based on molecular docking studies that provided insights into the mode of binding of 7 and approaches intended to improve potency. The substituent at the para- position of the aromatic ring appeared to be crucial for biological activity due to the vital π-π stacking interaction of this group with Tyr^258. […] These strains emit light upon activation of PqsR by the endogenous production of these signal molecules. […] The results of the SAR in this assay highlight the importance of testing any prospective anti-virulence strategy on multiple genetically distinct P. aeruginosa strains as a means to reduce the chance of failure at both pre-clinical and clinical stages (Freschi et al., [2015]). […]
PA14 mCTX::PpqsA-lux PA14 with chromosomal mini-CTX::PpqsA-lux (Soukarieh insertion; TcR et al., 2018) […]
mini-CTX::PpqsA-lux R6K-based mini-CTX suicide plasmid for the (Diggle et chromosomal insertion of a PpqsA-lux al., 2007) transcriptional reporter fusion; TcR
Biosensor reporter assay:
Strains PA14 mCTX::PpqsA-lux and PAO1-L mCTX::PpqsA-lux were constructed using plasmid mini-CTX::PpqsA-lux as previously described (Diggle et al., 2007) and the assay was performed according to published procedures (Fletcher et al., 2007). For screening, the compounds were tested at 10 µM concentration which was prepared from 10 mM stock in DMSO. […]

Cn1c2ccccc2c2nnc(SCC(=O)Nc3ccc(Oc4ccccn4)cc3)nc21 [Compound 40, 2-((5-Methyl-5H-[1,2,4]triazino[5,6-b]indol-3-yl)thio)-N-(4-(pyridin-2-yloxy)phenyl)acetamide]
IC50: 340 ± 30 nM
